The structures appear in SMILES notation.

System in the first test: not listed separately
Kind of test: Agonist activity at human BKCa channel expressed in CHO cells assessed as increase in potassium current at 3 uM by PatchXpress electrophysiology assay relative to control. Format: functional.
For `O=C(O)c1ccc2c(c1)CC[C@@H](c1ccc(Cl)cc1Cl)N2`, the “fold change (FC)” value was 0.9.
On the same count and under the same terms, then `O=C(O)c1ccc2c(c1)[C@@H]1C(O)C(O)C[C@@H]1[C@@H](c1ccc(Cl)cc1Cl)N2` (some centres not stated), with 0.9; and `O=C(O)c1ccc2c(c1)C1CCCC[C@@H]1[C@@H](c1ccc(Cl)cc1Cl)N2` (single isomer, unassigned), with 3.6; and `O=C(O)c1ccc2c(c1)[C@@H]1C=CC[C@@H]1[C@@H](c1ccc(Cl)cc1Cl)N2`, with 6.7.
As for `CS(=O)(=O)NC(=O)c1ccc2c(c1)[C@@H]1C=CC[C@@H]1[C@@H](c1ccc(Cl)cc1Cl)N2`, the “fold change (FC)” value was 2.7.
Consider `CONC(=O)c1ccc2c(c1)[C@@H]1C=CC[C@@H]1[C@@H](c1ccc(Cl)cc1Cl)N2`, for which the “fold change (FC)” value was 2.2.
Still for that read-out and setting: then `O=C(O)c1ccc2nc(-c3ccc(Cl)cc3Cl)c3c(c2c1)CCC3`, with 1; and `O=C(O)c1ccc2c(c1)C1C=CCC[C@@H]1[C@@H](c1ccc(Cl)cc1Cl)N2` (single isomer, unassigned), with 4.5.
`O=C(O)Cc1ccc2c(c1)[C@@H]1C=CC[C@@H]1[C@@H](c1ccc(Cl)cc1Cl)N2`: the “fold change (FC)” value is on record as 1.5.
On the same count and under the same terms, then `O=C(O)c1ccc2c(c1)C1OCCC[C@@H]1[C@@H](c1ccc(Cl)cc1Cl)N2` (single isomer, unassigned), with 1.5.
The same measure, in the same setting: then `O=c1[nH]c(-c2ccc3c(c2)[C@@H]2C=CC[C@@H]2[C@@H](c2ccc(Cl)cc2Cl)N3)no1`, with 3.4; and `OCc1ccc2c(c1)[C@@H]1C=CC[C@@H]1[C@@H](c1ccc(Cl)cc1Cl)N2`, with 1.5; and `O=C(O)c1ccc2c(c1)[C@@H]1CCC[C@@H]1[C@@H](c1ccc(Cl)cc1Cl)N2`, with 4.6.
`O=C(O)c1ccc2c(c1)[C@@H]1OCC[C@@H]1[C@@H](c1ccc(Cl)cc1Cl)N2`: the “fold change (FC)” value is recorded as 1.
As to `COC(=O)c1ccc2c(c1)[C@@H]1C=CC[C@@H]1[C@@H](c1ccc(Cl)cc1Cl)N2`, the “fold change (FC)” value is listed as 1.

System in the next test: not listed separately
Kind of test: Agonist activity at human BKCa channel expressed in CHO cells assessed as increase in potassium current at 10 uM by PatchXpress electrophysiology assay relative to control. The format is functional.
In the case of `O=C(O)c1ccc2c(c1)[C@@H]1C=CC[C@@H]1[C@@H](c1ccc(Cl)c(Cl)c1)N2`, the “fold change (FC)” value is on record as 12.1.
Turning to `Cn1cc([C@H]2Nc3ccc(C(=O)O)cc3[C@@H]3C=CC[C@H]23)cn1`, the “fold change (FC)” value is given as 1.
For the molecule `O=C(O)c1ccc2c(c1)[C@@H]1C=CC[C@@H]1[C@@H](c1ccc(Cl)cc1)N2`, the “fold change (FC)” value was determined as 7.3.
On the same count and under the same terms, for `CC(C)(C)[C@H]1Nc2ccc(C(=O)O)cc2[C@@H]2C=CC[C@@H]21` the value was 0.8; for `O=C(O)c1ccc2c(c1)[C@@H]1C=CC[C@@H]1[C@@H](c1ccc(Cl)cc1Cl)N2`, 11.2; for `O=C(O)c1ccc2c(c1)[C@@H]1C=CC[C@@H]1[C@@H](c1ccc(C(F)(F)F)cc1)N2`, 6.
Take `O=C(O)c1ccc2c(c1)[C@@H]1C=CC[C@@H]1[C@@H](c1ccccc1)N2`: the “fold change (FC)” value turned out to be 1.2.
`O=C(O)c1ccc2c(c1)[C@@H]1C=CC[C@@H]1[C@@H](c1ncc(Cl)cc1Cl)N2`: the “fold change (FC)” value came out at 2.5.
On to `O=C(O)c1ccc2c(c1)[C@@H]1C=CC[C@@H]1CN2`, for which the “fold change (FC)” value is reported as 0.6.
For the molecule `Cc1ccc([C@H]2Nc3ccc(C(=O)O)cc3[C@@H]3C=CC[C@H]23)c(C)c1`, the “fold change (FC)” value is on record as 8.9.
The same measure, in the same setting: for `O=C(O)c1ccc2c(c1)[C@@H]1C=CC[C@@H]1[C@@H](c1cccc(Cl)c1)N2` the value was 2.2.
On the same count and under the same terms, for `Cc1cccc([C@H]2Nc3ccc(C(=O)O)cc3[C@@H]3C=CC[C@H]23)c1` the value was 3.1; for `O=C(O)c1ccc2c(c1)[C@@H]1C=CC[C@@H]1[C@@H](c1cccc(Cl)c1Cl)N2`, 2.7.
Still for that read-out and setting: for `O=C(O)c1ccc2c(c1)[C@@H]1C=CC[C@@H]1[C@@H](c1ccc(Br)cc1)N2` the value was 8.9.
In the case of `O=C(O)c1ccc2c(c1)[C@@H]1C=CC[C@@H]1[C@@H](c1ccccc1Cl)N2`, the “fold change (FC)” value is recorded as 4.9.
Still for that read-out and setting: then `O=C(O)c1ccc2c(c1)[C@@H]1C=CC[C@@H]1[C@@H](c1cccc(Br)c1)N2`, with 2.6.

The species named for another test is Rattus norvegicus. The test is described as follows: Reduction in spontaneous neuronal firing in Sprague-Dawley rat at 10 uM. The format is functional.
On to `O=C(O)c1ccc2c(c1)[C@@H]1C=CC[C@@H]1[C@@H](c1ccc(Cl)cc1Cl)N2`, for which the “inhibition (INH)” value is on record as 75%.

For the origin of these results see ChEMBL document CHEMBL1158626, “Structure-activity relationship (SAR) investigations of tetrahydroquinolines as BKCa agonists” (2010).
